Source: a compilation of properties of binary mixtures (doi:10.4028/www.scientific.net/amr.864-867.125)

Assay: xn = mol fraction of the nth substance listed
Conditions: 101 kPa

Work on CCCC[n+]1ccn(C)c1.F[P-](F)(F)(F)(F)F + Cc1ccccc1 yielded a viscosity (298.15 K, x2 = 0.1) of 149.5 mPa·s, a viscosity (298.15 K, x2 = 0.2) of 111.5 mPa·s and a viscosity (298.15 K, x2 = 0.3) of 67.3 mPa·s. It also gave a viscosity (298.15 K, x2 = 0.4) of 42.9 mPa·s, a viscosity (300.65 K, x2 = 0.05) of 126.7 mPa·s and a viscosity (300.65 K, x2 = 0.1) of 99.9 mPa·s. It also gave a viscosity (300.65 K, x2 = 0.3) of 50.1 mPa·s, a viscosity (303.15 K, x2 = 0.05) of 98 mPa·s and a viscosity (303.15 K, x2 = 0.2) of 55.7 mPa·s. For the same compound, the viscosity (303.15 K, x2 = 0.4) was 24.6 mPa·s, the viscosity (305.65 K, x2 = 0.05) was 79 mPa·s and the viscosity (305.65 K, x2 = 0.1) was 57.3 mPa·s. For the same compound, the viscosity (305.65 K, x2 = 0.2) was 44.2 mPa·s, the viscosity (305.65 K, x2 = 0.4) was 20.42 mPa·s and the viscosity (308.15 K, x2 = 0.05) was 65.7 mPa·s. For the same compound, the viscosity (308.15 K, x2 = 0.1) was 47 mPa·s, the viscosity (308.15 K, x2 = 0.2) was 36.8 mPa·s and the viscosity (308.15 K, x2 = 0.4) was 17.61 mPa·s. It also gave a viscosity (310.65 K, x2 = 0.05) of 56 mPa·s, a viscosity (310.65 K, x2 = 0.2) of 31.7 mPa·s and a viscosity (310.65 K, x2 = 0.3) of 24 mPa·s. The viscosity (310.65 K, x2 = 0.4) was 15.61 mPa·s, the viscosity (313.15 K, x2 = 0.05) was 48.7 mPa·s and the viscosity (313.15 K, x2 = 0.1) was 34.7 mPa·s. For the same compound, the viscosity (313.15 K, x2 = 0.2) was 27.9 mPa·s, the viscosity (313.15 K, x2 = 0.3) was 21.33 mPa·s and the viscosity (315.65 K, x2 = 0.05) was 43.1 mPa·s. The viscosity (315.65 K, x2 = 0.1) was 30.8 mPa·s, the viscosity (315.65 K, x2 = 0.2) was 25.1 mPa·s and the viscosity (315.65 K, x2 = 0.3) was 19.23 mPa·s. It also gave a viscosity (315.65 K, x2 = 0.4) of 12.97 mPa·s, a viscosity (318.15 K, x2 = 0.05) of 38.7 mPa·s and a viscosity (318.15 K, x2 = 0.1) of 27.8 mPa·s. The viscosity (318.15 K, x2 = 0.2) was 22.96 mPa·s, the viscosity (318.15 K, x2 = 0.4) was 12.06 mPa·s and the viscosity (320.65 K, x2 = 0.05) was 35.1 mPa·s. It also gave a viscosity (320.65 K, x2 = 0.1) of 25.4 mPa·s, a viscosity (320.65 K, x2 = 0.2) of 21.23 mPa·s and a viscosity (323.15 K, x2 = 0.05) of 32.2 mPa·s. It also gave a viscosity (323.15 K, x2 = 0.1) of 23.49 mPa·s, a viscosity (323.15 K, x2 = 0.2) of 19.82 mPa·s and a viscosity (323.15 K, x2 = 0.3) of 15.09 mPa·s. The viscosity (323.15 K, x2 = 0.4) was 10.71 mPa·s, the viscosity (325.65 K, x2 = 0.05) was 29.8 mPa·s and the viscosity (325.65 K, x2 = 0.1) was 21.91 mPa·s. It also gave a viscosity (325.65 K, x2 = 0.2) of 18.66 mPa·s, a viscosity (325.65 K, x2 = 0.3) of 14.15 mPa·s and a viscosity (325.65 K, x2 = 0.4) of 10.21 mPa·s. The viscosity (328.15 K, x2 = 0.1) was 20.59 mPa·s, the viscosity (328.15 K, x2 = 0.2) was 17.68 mPa·s and the viscosity (328.15 K, x2 = 0.3) was 13.36 mPa·s. It also gave a viscosity (328.15 K, x2 = 0.4) of 9.77 mPa·s, a viscosity (330.65 K, x2 = 0.1) of 19.47 mPa·s and a viscosity (330.65 K, x2 = 0.2) of 16.85 mPa·s. The viscosity (330.65 K, x2 = 0.3) was 12.68 mPa·s, the viscosity (330.65 K, x2 = 0.4) was 9.4 mPa·s and the viscosity (333.15 K, x2 = 0.05) was 24.5 mPa·s. It also gave a viscosity (333.15 K, x2 = 0.1) of 18.52 mPa·s, a viscosity (333.15 K, x2 = 0.2) of 16.14 mPa·s and a viscosity (333.15 K, x2 = 0.3) of 12.09 mPa·s. It also gave a viscosity (333.15 K, x2 = 0.4) of 9.08 mPa·s, a viscosity (335.65 K, x2 = 0.05) of 23.16 mPa·s and a viscosity (335.65 K, x2 = 0.1) of 17.69 mPa·s. For the same compound, the viscosity (335.65 K, x2 = 0.2) was 15.52 mPa·s, the viscosity (335.65 K, x2 = 0.3) was 11.58 mPa·s and the viscosity (338.15 K, x2 = 0.1) was 16.96 mPa·s. The viscosity (338.15 K, x2 = 0.2) was 14.98 mPa·s, the viscosity (338.15 K, x2 = 0.3) was 11.13 mPa·s and the viscosity (338.15 K, x2 = 0.4) was 8.56 mPa·s.
